Experiments:
Type in all cases: in vivo
[1] = tested on: Leptinotarsa decemlineata; assay: Pesticidal test against Leptinotarsa decemlineata, eggplant leaf dip (Test Example 5); conditions: foliar, 120 h, eggplant leaf immersed 1 minute, second-instar larvae, 5th day after release, read-out: rate of dead or moribund pests
Method: A leaf of eggplant was immersed in the test liquid, which had been prepared as described above, for 1 minute. After the test liquid treated the leaf of eggplant was dried with a paper towel, the leaf of eggplant was placed in a polyethylene cup of 3 cm in diameter. One second-instar larvae of Leptinotarsa decemlineata (Colorado potato beetle) were set free in the polyethylene cup, which was then kept covered and left in a greenhouse at 25° C. This test was done ten times for one compound. On the 5th day after the release of Leptinotarsa decemlineata, the number of dead pests and moribund pests was examined.

Musca domestica = assay: Pesticidal test against Musca domestica, filter paper with sucrose bait (Test Example 6); conditions: 500 ppm, 0.7 ml on filter paper, ten female adults, after 24 hours, read-out: mortality
Method: Ten female adults of Musca domestics (house fly) were set free in the polyethylene cup, which was then kept covered. After 24 hours, their survival was examined to determine the mortality.

Ctenocephalides felis = assay: Pesticidal test against Ctenocephalides felis, treated filter paper (Test Example 9); conditions: 200 mg/m^2 on filter paper (acetone solution), twenty adults, after 24 hours
Method: Each of the compound 8, 15, 19, 21 and 34 was dissolved in acetone to give a 0.2 ml solution of 0.114% w/w, which was uniformly treated on a filter paper having 3.8cm in diameter, and air-dried. The amount of active ingredient was 200 mg/m^2. The filter paper was filled in a lid of a 200 ml glass bottle. Twenty adult Ctenocephalides felis (cat flea) were released in the glass bottle, which was followed by covering with the lid. The glass bottle was upset for making the fleas contact with the filter paper. After 24 hours, the mortality was examined.

Eysarcoris lewisi = assay: Pesticidal test against Eysarcoris lewisi, treated peanut seeds (Test Example 4); conditions: 168 h, peanut seeds immersed 1 minute, adults, 7th day after release, read-out: rate of dead or moribund pests
Method: Then, 3 to 5 seeds of peanut were immersed in the test liquid, which had been prepared as described above, for 1 minute. After the test liquid treated the seeds of peanut was dried with a paper towel, a filter paper moistened with 1 ml of water was placed on a bottom of polyethylene cup and then the seeds of peanut was placed on it. Six to eight adults of Eysarcoris lewisi were set free in the polyethylene cup, which was then kept covered and left in a greenhouse at 25° C. On the 7th day after the release of Eysarcoris lewisi, the number of dead pests and moribund pests was examined.

Row | SMILES | pest or weed control at 1.6 ppm [1] | mortality at 500 ppm (Musca domestica) | mortality at 200 mg/m2 (Ctenocephalides felis) | pest or weed control at 100 ppm (Eysarcoris lewisi)
1 | N#CC(C#N)(Cc1ccc(OC(F)(F)F)cc1)CC(F)(F)C(F)(F)F [Compound 5, 2-(2,2,3,3,3-pentafluoropropyl)-2-(4-(trifluoromethoxy)benzyl)malononitrile] | > 80% | 100% | – | –
2 | N#CC(C#N)(CCC(F)(F)C(F)(F)F)Cc1ccc(C(F)(F)F)cc1 [Compound 8, 2-(3,3,4,4,4-pentafluorobutyl)-2-(4-(trifluoromethyl)benzyl)malononitrile] | > 80% | 100% | 100% | 100%
3 | N#CC(C#N)(CCC(F)(F)C(F)(F)F)Cc1ccc(OC(F)(F)F)cc1 [Compound 10, 2-(3,3,4,4,4-pentafluorobutyl)-2-(4-(trifluoromethoxy)benzyl)malononitrile] | > 80% | 100% | – | 100%
4 | N#CC(C#N)(CCC(F)(F)F)Cc1ccc(Cl)cc1 [Compound 15, 2-(4-chlorobenzyl)-2-(3,3,3-trifluoropropyl)malononitrile] | > 80% | 100% | 100% | –
5 | N#CC(C#N)(CCC(F)(F)F)Cc1ccc(F)c(F)c1 [Compound 19, 2-(3,4-difluorobenzyl)-2-(3,3,3-trifluoropropyl)malononitrile] | – | 100% | 100% | –
6 | N#CC(C#N)(CCC(F)(F)F)Cc1ccc(Cl)c(Cl)c1 [Compound 21, 2-(3,4-dichlorobenzyl)-2-(3,3,3-trifluoropropyl)malononitrile] | > 80% | 100% | 100% | 100%
7 | CSc1ccc(CC(C#N)(C#N)CCC(F)(F)F)cc1 [Compound 34, 2-(4-(methylthio)benzyl)-2-(3,3,3-trifluoropropyl)malononitrile] | – | 100% | 100% | –
8 | N#CC(C#N)(CCC(F)(F)F)Cc1ccc(OC(F)(F)F)cc1 [Compound 50, 2-(3,3,3-trifluoropropyl)-2-(4-(trifluoromethoxy)benzyl)malononitrile] | > 80% | 100% | – | 100%
9 | N#CC(C#N)(CCC(F)(F)F)Cc1ccc(C(F)(F)F)cc1 [Compound 74, 2-(3,3,3-trifluoropropyl)-2-(4-(trifluoromethyl)benzyl)malononitrile] | > 80% | 100% | – | 100%
10 | N#CC(C#N)(Cc1ccc(C(F)(F)F)cc1)CC(F)(F)C(F)(F)F [Compound 76, 2-(2,2,3,3,3-pentafluoropropyl)-2-(4-(trifluoromethyl)benzyl)malononitrile] | > 80% | 100% | – | 100%
11 | N#CC(C#N)(CCCC(F)(F)F)Cc1ccc(C(F)(F)F)cc1 [Compound 78, 2-(4,4,4-trifluorobutyl)-2-(4-(trifluoromethyl)benzyl)malononitrile] | > 80% | 100% | – | –
